Data on three molecules can be found in article PMC12670396, “Crizotinib- or Ceritinib-Conjugated Platinum(IV) Prodrugs As Potent Multiaction Agents Inducing Antiproliferative Effects in 2D and 3D Cancer Cell Models” (Journal of Medicinal Chemistry, 2025).

One assay deals with A549. Kind of assay: MTT cytotoxic/antiproliferative activity, 72 h. It is filed as cell-based, human. To be noted: for IC50: A549, MTT, 72 h.
Another assay deals with NCI-H2228. Kind of assay: MTT cytotoxic/antiproliferative activity, 72 h. In kind it is cell-based, human. To be noted: for IC50: NCI-H2228, MTT, 72 h.
For another assay, the system named is U87-MG. Kind of assay: MTT cytotoxic/antiproliferative activity, 72 h. It is filed as cell-based, human. To be noted: for IC50: MTT, 72 h. Here is the method:
(§1) A panel of six cancer cell lines was used to evaluate the cytotoxic potential of the investigated compounds.
(§2) Cytotoxicity in hepatocyte-like cells (HLC). STEMdiff Hepatocyte Kit was used to generate HLC from human pluripotent stem cells. Cytotoxicity of several of the tested compounds in HLC was evaluated using the sulphorhodamine B assay.

The test system of the next assay is RD. Put plainly: MTT cytotoxic/antiproliferative activity, 72 h. In kind it is cell-based, human. The following applies: for IC50: MTT, 72 h.
A further assay has as its system MDA-MB-231. Put plainly: MTT cytotoxic/antiproliferative activity, 72 h. It is filed as cell-based, human. To be noted: for IC50: MDA-MB-231, MTT, 72 h.
For another assay, the system named is IMR-90. Kind of assay: MTT cytotoxicity in noncancerous cells, 72 h. It is filed as cell-based, human. To be noted: IMR-90, MTT. Here is the method: (§3) Growth inhibition activity in cancer cell lines was compared with the activity to inhibit the proliferation of normal (noncancerous) cells, namely MRC-5, IMR-90, hTERT-HPNE, and MCF10A cells. Selectivity indexes (SI) were calculated as (IC50 in noncancerous cells)/(average IC50 in cancer cells). […] We further assessed the toxicity of several of the compounds in hepatocyte-like cells (HLC) generated from human pluripotent cells.
as §2

For a further assay, the system named is MCF10A. Put plainly: MTT cytotoxicity in noncancerous cells, 72 h. It is filed as cell-based, human. Here is the method: as §3, §2
Another assay deals with MRC-5. Put plainly: MTT cytotoxicity in noncancerous cells, 72 h. The following applies: MRC-5, MTT. In kind it is cell-based, human. Here is the method: as §3, §2
In another assay the test system is hTERT-HPNE. Kind of assay: MTT cytotoxicity in noncancerous cells, 72 h. It is filed as cell-based, human. The method, then: as §3, §2
The next assay relates to CHOK1. Put plainly: MTT cytotoxicity in NER-proficient cells, 72 h. In kind it is cell-based, Chinese hamster.
Description: (§4) The cytotoxicity assay was also employed to determine whether DNA damage might be involved in the mechanism of action of the tested compounds. The Chinese hamster ovary MMC2 cell line harbors the ERCC3/XPB mutation, which renders it deficient in nucleotide excision repair (NER), whereas the parent line CHOK1 is proficient in this repair process. Thus, the MMC2 line is often more sensitive to agents causing DNA damage, especially NER-reparable DNA damage, than CHOK1. […] Phosphorylation of H2AX is a commonly used marker of DNA damage.
as §2

In the next assay the test system is MMC2. Put plainly: MTT cytotoxicity in NER-deficient cells, 72 h. It is filed as cell-based, Chinese hamster. The following applies: for Index F: IC50(CHOK1)/IC50(MMC2); for IC50: MMC2 (NER deficient), MTT, 72 h. The text has this: The cytotoxicity assay was also employed to determine whether DNA damage might be involved in the mechanism of action of the tested compounds. The Chinese hamster ovary MMC2 cell line harbors the ERCC3/XPB mutation, which renders it deficient in nucleotide excision repair (NER), whereas the parent line CHOK1 is proficient in this repair process. Thus, the MMC2 line is often more sensitive to agents causing DNA damage, especially NER-reparable DNA damage, than CHOK1. […] Phosphorylation of H2AX is a commonly used marker of DNA damage. […]

For assay [1], the system named is panel of six cancer cell lines. Put plainly: MTT, panel of six cancer cell lines (average, ranges). It is filed as cell-based, human. To be noted: average over six cancer cell lines; read-out: av cancer (average IC50 in cancer cells). The method, then:
as §1, §2

The subject of assay [2] is normal (noncancerous) cells MRC-5, IMR-90, hTERT-HPNE, MCF10A. Kind of assay: MTT, noncancerous cell lines (average, selectivity index). It is filed as cell-based, human. To be noted: for SI, selectivity index: IC50(normal cells)/averageIC50(cancer cells); for IC50: average over MRC-5, IMR-90, hTERT-HPNE, MCF10A, read-out: av norm (average IC50 in noncancerous cells). The method, then: Growth inhibition activity in cancer cell lines was compared with the activity to inhibit the proliferation of normal (noncancerous) cells, namely MRC-5, IMR-90, hTERT-HPNE, and MCF10A cells. Selectivity indexes (SI) were calculated as (IC50 in noncancerous cells)/(average IC50 in cancer cells). […] We further assessed the toxicity of several of the compounds in hepatocyte-like cells (HLC) generated from human pluripotent cells. […]

The test system of the next assay is A549 spheroids. Put plainly: Cytotoxicity in 3D spheroids, CellTiter-Glo 3D. It is filed as cell-based, human. To be noted: A549 3D spheroids, 96 h. The method, then: (§5) In the 3D structure, the gradients of gases, nutrients, and therapeutics play a role in the final cytotoxicity of a compound.
(§6) A549 and NCI-H2228 cells were seeded in ultralow attachment, U-shape plates (Corning) at a density of 800 cells/well in the tumorsphere medium consisting of DMEM/F12 medium (Sigma), fibroblast growth factor (20 ng/mL; Sigma), epidermal growth factor 2 (10 ng mL^–1; Sigma), B27 supplement (1×; Gibco), bovine serum albumin, bovine serum albumin (BSA) (1.5 mg mL^–1; Sigma). […] CellTiter-Glo 3D viability assay was used for the experiment evaluation following the manufacturer’s instructions. The bioluminescence signal, proportional to the number of living cells, was measured using the luminescence reader SPARK, and IC50 values were calculated.
A general note: Cellular ATP, detected with luciferase, serves as a proxy for viable cell number.

A further assay concerns NCI-H2228 spheroids. Kind of assay: Cytotoxicity in 3D spheroids, CellTiter-Glo 3D. In kind it is cell-based, human. To be noted: NCI-H2228 3D spheroids, 96 h. Here is the method:
as §5, §6

Another assay relates to NCI-H2228 cells. Kind of assay: Phosphorylation of H2AX (γH2AX foci, confocal microscopy). It is filed as cell-based, human. To be noted: NCI-H2228, 3xIC50, 24 h.
Description: as §4
The nuclei were counter-stained with DAPI. The samples were mounted with ProLong Diamond antifade mountant, and the images were recorded on a Leica SP8 confocal microscope.

The test system of another assay is CT26 cell line. Kind of assay: MTT cytotoxic/antiproliferative activity, 72 h. It is filed as cell-based, murine.
The next assay concerns A549 cells. Put plainly: Scratch test (cell migration). In kind it is cell-based, human. The following applies: A549, IC50 concentrations, 48 h. The method, then:
First, we employed the scratch test. The ability to slow the cell closing the open area was observable for all tested compounds to a similar extent (Figure S38). Whereas the open area was almost completely closed after 48 h in nontreated cells, it remained almost fully clear of cells in the treated samples.
A549 cells were seeded in 24-well plates with inserts (Ibidi) at a density of 2 × 10^4 cells/chamber and incubated overnight. The inserts were then withdrawn, and fresh medium containing the investigated compounds was added. The image of the cell-free region was recorded at the time of compound addition and then after 48 h. The cell-free area was evaluated with Fiji software.

The next assay has as its system CT26 cells. Kind of assay: Externalization of calreticulin (flow cytometry). In kind it is cell-based, murine. To be noted: IC50 concentrations, 16 h. Here is the method:
Cells with compromised cell membranes (PI-positive) were excluded from the analysis.
CT26 cells were seeded in 6-well plates at a density of 2.5 × 10^5 cells/well and grown overnight. […] PI was added before the flow cytometry analysis with a BD FACS Verse flow cytometer. Then 3 × 10^4 cells were analyzed following the exclusion of cell aggregates. Data was analyzed with FSC Express 7 software (DeNovo software, Glendale, CA).
On the technique in general: A flow cytometer gives signals particle by particle.

Regarding `Cc1cc(Nc2ncc(Cl)c(Nc3ccccc3S(=O)(=O)C(C)C)n2)c(OC(C)C)cc1C1CCN(C(=O)[O][Pt]([Cl])([Cl])[O]C(=O)CCCc2ccccc2)CC1.N.N` [compound 7, ctc-[Pt(NH3)2(ceritinib)(PhB)Cl2]], the IC50 in the assay on A549 turned out to be 0.23 ± 0.08 µM; in the assay with NCI-H2228, 0.07 ± 0.01 µM; in the assay on U87-MG it was 0.26 ± 0.09 µM; in the assay with RD, 0.35 ± 0.03 µM; with MDA-MB-231, 0.22 ± 0.08 µM; with IMR-90, 1.1 ± 0.3 µM. Further, the IC50 was determined as 0.9 ± 0.2 µM with MCF10A; 1.2 ± 0.4 µM in the assay on MRC-5; 2 ± 0.3 µM in the assay on hTERT-HPNE; 0.46 ± 0.08 µM in the assay with CHOK1; 0.1 ± 0.03 µM with MMC2; 0.22 µM in assay [1]. Besides, the IC50 in assay [2] turned out to be 1.3 µM; in the assay on A549 spheroids, 0.43 ± 0.07 µM; with NCI-H2228 spheroids it was 0.11 ± 0.03 µM; with CT26 cell line, 0.27 ± 0.07 µM. Besides, the “IC50(MIX)/IC50(complex)” value in the assay with A549 (A549, MIX3/3 or MIX7/7) was determined as 3.9; in the assay with NCI-H2228 (NCI-H2228, MIX3/3 or MIX7/7), 6.3; in the assay on U87-MG (MIX3/3 or MIX7/7), 2.4; in the assay on RD (MIX3/3 or MIX7/7), 1.7; in the assay with MDA-MB-231 (MDA-MB-231, MIX3/3 or MIX7/7), 4.1. Moreover, in the assay on MMC2, the “Index F” value is recorded as 4.60(**). Also, in assay [2], the “SI, selectivity index” value was 5.9. Moreover, the “γH2AX foci (DNA damage marker)” value with NCI-H2228 cells is “detected γH2AX foci”. In the assay with A549 cells, the “antimigratory effect (closing of open area)” value (shortened to “antimigratory effect”) was “antimigratory potential comparable to that of crizotinib and ceritinib”. For the same molecule, the externalization of calreticulin entry with CT26 cells was “externalization of calreticulin was apparent”.

For the molecule `CC(Oc1cc(-c2cnn(C3CCN(C(=O)[O][Pt]([Cl])([Cl])[O]C(=O)CCCc4ccccc4)CC3)c2)cnc1N)c1c(Cl)ccc(F)c1Cl.N.N` (stereo not shown) [compound 3, ctc-[Pt(NH3)2(crizotinib)(PhB)Cl2]], the IC50 with A549 was determined as 0.48 ± 0.06 µM; in the assay with NCI-H2228 it was 0.45 ± 0.09 µM; in the assay with U87-MG, 0.44 ± 0.05 µM; in the assay on RD it was 0.54 ± 0.07 µM; in the assay with MDA-MB-231, 0.5 ± 0.07 µM; with IMR-90 it was 2.3 ± 0.6 µM. For the same molecule, the IC50 was determined as 2.6 ± 0.4 µM with MCF10A; 1.5 ± 0.6 µM in the assay with MRC-5; 2.2 ± 0.4 µM with hTERT-HPNE; 0.63 ± 0.05 µM with CHOK1; 0.23 ± 0.08 µM in the assay with MMC2; 0.5 µM in [1]. For the same molecule, the IC50 in [2] turned out to be 2.2 µM; in the assay on A549 spheroids, 0.98 ± 0.05 µM; in the assay with NCI-H2228 spheroids it was 0.41 ± 0.07 µM; in the assay on CT26 cell line, 0.8 ± 0.2 µM. The “γH2AX foci (DNA damage marker)” value in the assay with NCI-H2228 cells is given as “detected γH2AX foci”. Further, in the assay with A549 cells, the “antimigratory effect” value is “antimigratory potential comparable to that of crizotinib and ceritinib”. Moreover, the externalization of calreticulin entry with CT26 cells is listed as “externalization of calreticulin was apparent”.

On to `N.N.[Cl][Pt][Cl]` [cisPt, cisplatin, reference compound], for which the IC50 in the assay with A549 worked out at 4.3 ± 0.2 µM; with NCI-H2228, 2.4 ± 0.7 µM; in the assay with U87-MG, 3 ± 0.2 µM; in the assay with RD, 7.3 ± 0.2 µM; in the assay with MDA-MB-231, 27 ± 4 µM; in the assay with IMR-90, 9.6 ± 0.8 µM. In addition, the IC50 in the assay with MCF10A amounted to 8 ± 0.9 µM; with MRC-5, 10 ± 2 µM; in the assay with hTERT-HPNE, 12 ± 2 µM; with CHOK1 it was 24 ± 2 µM; with MMC2 it was 2.6 ± 0.6 µM; in assay [1], 8.8 µM. Also, the IC50 in assay [2] stood at 9.9 µM; with A549 spheroids, 19 ± 3 µM; in the assay on NCI-H2228 spheroids it was 2.1 ± 0.9 µM; in the assay on CT26 cell line, 6 ± 1 µM. Moreover, the “Index F” value is 9.23(***) in the assay on MMC2 and “approximately 9” with MMC2 (listed as cisplatin). Further, the “SI, selectivity index” value in assay [2] stood at 1.1. Further, the “γH2AX foci (DNA damage marker)” value in the assay with NCI-H2228 cells is listed as “detected γH2AX foci”. In the assay on A549 cells, the “antimigratory effect” value is reported as “reduced the area filling only partially”. Further, in the assay with CT26 cells, the externalization of calreticulin entry is recorded as “weakest”.

A word on the IC50: it is the concentration that inhibits the measured activity by half.
